In ChEMBL document CHEMBL1123770, “Systematic synthesis and biological evaluation of alpha- and beta-D-lyxofuranosyl nucleosides of the five naturally occurring nucleic acid bases” (1987):
Values after ≈ are worked out from the molar mass of the structure shown.

What was measured:
Oryctolagus cuniculus [1] = organism: Oryctolagus cuniculus; assay: Minimum inhibitory concentration (MIC) required to reduce virus-induced cytopathogenicity by 50% against KOS strain of Herpes simplex virus-1 in primary rabbit kidney cells; assay type: functional
HeLa [2] = assay: Minimum inhibitory concentration (MIC) required to reduce virus-induced cytopathogenicity by 50% against Vesicular stomatitis virus in HeLa cells; assay type: functional; conditions: Homo sapiens
Vero [3] = assay: Minimum inhibitory concentration (MIC) required to reduce virus-induced cytopathogenicity by 50% against Parainfluenza virus-3 in African green monkey kidney (Vero B)cells; assay type: functional, Chlorocebus sabaeus
WI-38 [4] = assay: Minimum cytotoxic concentration (MCC) required to cause a microscopically detectable alteration of host cell morphology, when incubated with WI-38 cells; assay type: functional; conditions: Homo sapiens
[5] = Minimum cytotoxic concentration (MCC) required to cause a microscopically detectable alteration of host cell morphology, when incubated with PRK cells; assay type: functional; conditions: Oryctolagus cuniculus
WI-38 [6] = assay: Minimum inhibitory concentration (MIC) required to reduce virus-induced cytopathogenicity by 50% against Rhinovirus 9 in human diploid (WI-38)cells; assay type: functional
Vero [7] = assay: Minimum inhibitory concentration (MIC) required to reduce virus-induced cytopathogenicity by 50% against Reo virus-1 in African green monkey kidney (Vero B)cells; assay type: functional, Chlorocebus sabaeus
Vero [8] = assay: Minimum inhibitory concentration (MIC) required to reduce virus-induced cytopathogenicity by 50% against forest virus in African green monkey kidney (Vero B)cells; assay type: functional; conditions: Chlorocebus sabaeus
HeLa [9] = assay: Minimum cytotoxic concentration (MCC) required to cause a microscopically detectable alteration of host cell morphology, when incubated with HeLa cells; assay type: functional; conditions: Homo sapiens
HeLa [10] = assay: Minimum inhibitory concentration (MIC) required to reduce virus-induced cytopathogenicity by 50% against Polio virus-1 in HeLa cells; assay type: functional; conditions: Homo sapiens
Oryctolagus cuniculus [11] = organism: Oryctolagus cuniculus; assay: Minimum inhibitory concentration (MIC) required to reduce virus-induced cytopathogenicity by 50% against G strain of Herpes simplex virus-2 in primary rabbit kidney cells; assay type: functional
HeLa [12] = assay: Minimum inhibitory concentration (MIC) required to reduce virus-induced cytopathogenicity by 50% against Coxsackie virus B4 in HeLa cells; assay type: functional; conditions: Homo sapiens
WI-38 [13] = assay: Minimum inhibitory concentration (MIC) required to reduce virus-induced cytopathogenicity by 50% against Rhinovirus-1A in human diploid (WI-38)cells; assay type: functional
Vero [14] = assay: Minimum cytotoxic concentration (MCC) required to cause a microscopically detectable alteration of host cell morphology, when incubated with Vero B cells; assay type: functional; conditions: Chlorocebus sabaeus
Oryctolagus cuniculus [15] = organism: Oryctolagus cuniculus; assay: Minimum inhibitory concentration (MIC) required to reduce virus-induced cytopathogenicity by 50% against Vesicular stomatitis virus in primary rabbit kidney cells; assay type: functional
Oryctolagus cuniculus [16] = organism: Oryctolagus cuniculus; assay: Minimum inhibitory concentration (MIC) required to reduce virus-induced cytopathogenicity by 50% against Vaccinia virus in primary rabbit kidney cells; assay type: functional
Vero [17] = assay: Minimum inhibitory concentration (MIC) required to reduce virus-induced cytopathogenicity by 50% against Coxsackie virus B4 in African green monkey kidney (Vero B)cells; assay type: functional, Chlorocebus sabaeus
Vero [18] = assay: Minimum inhibitory concentration (MIC) required to reduce virus-induced cytopathogenicity by 50% against Sindbis virus in African green monkey kidney (Vero B)cells; assay type: functional; conditions: Chlorocebus sabaeus
[19] = Chlorocebus sabaeus, read-out: MIC
[20] = Oryctolagus cuniculus, read-out: MIC

Q: With `Nc1ncnc2c1ccn2[C@@H]1O[C@H](CO)[C@@H](O)[C@H]1O` [TUBERCIDIN] as the compound, how does the MIC (Oryctolagus cuniculus [1]) read?
A: > 0.4 µg/mL

Q: And the MIC (HeLa [2])?
A: 0.07 µg/mL (≈ 0.263 µM)

Q: And the MIC (Vero [3]; [19])?
A: > 0.1 µg/mL

Q: What about the MCC (WI-38 [4]) of the same compound?
A: > 4 µg/mL

Q: And the MCC [5]?
A: 1 µg/mL

Q: What about the MIC (WI-38 [6]; Homo sapiens, read-out: MIC) of the same compound?
A: > 4 µg/mL

Q: And the MIC (Vero [7]; [19])?
A: > 0.1 µg/mL

Q: And the MIC (Vero [8])?
A: > 0.4 µg/mL

Q: What about the MCC (HeLa [9]) of the same compound?
A: > 1 µg/mL

Q: What about the MIC (HeLa [10]) of the same compound?
A: 0.07 µg/mL (≈ 0.263 µM)

Q: And the MIC (Oryctolagus cuniculus [11]; [20])?
A: > 0.4 µg/mL

Q: And the MIC (HeLa [12])?
A: 0.2 µg/mL (≈ 0.751 µM)

Q: And the MIC (WI-38 [13])?
A: 0.02 µg/mL (≈ 0.0751 µM)

Q: And the MCC (Vero [14])?
A: > 0.4 µg/mL

Q: And the MIC (Oryctolagus cuniculus [15])?
A: 0.07 µg/mL (≈ 0.263 µM)

Q: What about the MIC (Oryctolagus cuniculus [16]; [20]) of the same compound?
A: 0.2 µg/mL (≈ 0.751 µM)

Q: And the MIC (Vero [17]; [19])?
A: 0.2 µg/mL (≈ 0.751 µM)

Q: What about the MIC (Vero [18]) of the same compound?
A: 0.2 µg/mL (≈ 0.751 µM)

Q: With `Nc1ccn([C@@H]2O[C@H](CO)[C@H](O)[C@@H]2O)c(=O)n1` as the compound, how does the MIC (Oryctolagus cuniculus [1]) read?
A: > 200 µg/mL

Q: And the MIC (Vero [3]; [19])?
A: > 100 µg/mL

Q: And the MCC (WI-38 [4])?
A: > 200 µg/mL

Q: And the MCC [5]?
A: > 200 µg/mL

Q: And the MIC (WI-38 [6]; Homo sapiens, read-out: MIC)?
A: > 200 µg/mL

Q: And the MIC (Vero [7]; [19])?
A: > 200 µg/mL

Q: And the MIC (Vero [8])?
A: > 200 µg/mL

Q: What about the MCC (HeLa [9]) of the same compound?
A: > 200 µg/mL

Q: And the MIC (Oryctolagus cuniculus [11]; [20])?
A: > 200 µg/mL

Q: And the MIC (HeLa [12])?
A: > 200 µg/mL

Q: What about the MIC (WI-38 [13]) of the same compound?
A: > 200 µg/mL

Q: What about the MCC (Vero [14]) of the same compound?
A: > 200 µg/mL

Q: What about the MIC (Oryctolagus cuniculus [16]; [20]) of the same compound?
A: 70 µg/mL (≈ 288 µM)

Q: What about the MIC (Vero [17]; [19]) of the same compound?
A: > 200 µg/mL

Q: What about the MIC (Vero [18]) of the same compound?
A: > 100 µg/mL

Q: With `Nc1ncnc2c1ncn2[C@@H]1O[C@H](CO)[C@H](O)[C@@H]1O` (stereo in doubt; 22d) as the compound, how does the MIC (Vero [3]) read?
A: >200 µg/mL

Q: What about the MIC (WI-38 [6]) of the same compound?
A: >400 µg/mL

Q: What about the MIC (Vero [7]) of the same compound?
A: >200 µg/mL

Q: What about the MIC (Oryctolagus cuniculus [11]) of the same compound?
A: >400 µg/mL

Q: And the MIC (WI-38 [13])?
A: > 400 µg/mL

Q: What about the MIC (Oryctolagus cuniculus [16]) of the same compound?
A: 200 µg/mL (≈ 748 µM)

Q: What about the MIC (Vero [17]) of the same compound?
A: 100 µg/mL (≈ 374 µM)
